In ChEMBL document CHEMBL1201862, “PubChem BioAssay data set” (2004):
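Method: 48-hour compound exposure of cells in 96-well plates, five concentrations, linear interpolation of endpoints. The concentration for 50% growth inhibition is given as GI50.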 Calls of active or inactive are those of the source. Rule as the data show it: active = GI50 up to about 1.1 µM and inactive = higher.

Tests used:
Assay in all cases: DTP human tumour cell line panel, 48 h
COLO 205 = tested on: COLO 205
A549 = tested on: A549
KM12 = tested on: KM12
NCI-H522 = tested on: NCI-H522
SNB-19 = tested on: SNB-19
SF-295 = tested on: SF-295
HCT-116 = tested on: HCT-116
OVCAR-3 = tested on: OVCAR-3
HT-29 = tested on: HT-29
HCC 2998 = tested on: HCC 2998
HOP-62 = tested on: HOP-62
ACHN = tested on: ACHN
NCI/ADR-RES = tested on: NCI/ADR-RES
TK-10 = tested on: TK-10
BT-549 = tested on: BT-549
OVCAR-8 = tested on: OVCAR-8
CCRF-CEM = tested on: CCRF-CEM
OVCAR-4 = tested on: OVCAR-4
T47D = tested on: T47D
SNB-75 = tested on: SNB-75

Measured: GI50

O=C(c1cccs1)N1CCN(C(=O)c2cccs2)C1=S
inactive: COLO 205 7.35 µM | A549 3.96 µM | KM12 3.23 µM | NCI-H522 3.98 µM | SNB-19 12.4 µM | SF-295 16.4 µM | HCT-116 8.77 µM | OVCAR-3 2.94 µM | HT-29 6.71 µM | HCC 2998 7.96 µM | HOP-62 5.04 µM | ACHN 7.41 µM | NCI/ADR-RES 16.7 µM | TK-10 5.4 µM | BT-549 5.4 µM | OVCAR-8 5.32 µM | CCRF-CEM 2.69 µM | OVCAR-4 16.9 µM | T47D 4.15 µM | SNB-75 2.28 µM

CC(=O)c1ccccc1NS(=O)(=O)c1ccc2nc(C)n(NS(=O)(=O)c3ccccc3C(C)=O)c(=O)c2c1
inactive: COLO 205 > 100 µM | KM12 > 100 µM | NCI-H522 > 100 µM | SNB-19 > 100 µM | SF-295 > 100 µM | HCT-116 > 100 µM | OVCAR-3 > 100 µM | HT-29 > 100 µM | HCC 2998 > 100 µM | HOP-62 > 100 µM | ACHN > 100 µM | NCI/ADR-RES > 100 µM | TK-10 > 100 µM | BT-549 > 100 µM | OVCAR-8 > 100 µM | CCRF-CEM > 100 µM | OVCAR-4 > 100 µM | T47D > 100 µM | SNB-75 > 100 µM

COc1ccc(OC)c(C(=O)c2cccc(C(=O)c3cc(OC)ccc3OC)n2)c1
inactive: COLO 205 32.1 µM | A549 42.9 µM | KM12 33.9 µM | NCI-H522 29.8 µM | SNB-19 43.3 µM | SF-295 29.9 µM | HCT-116 43.9 µM | HT-29 35.7 µM | HCC 2998 46.9 µM | HOP-62 37.1 µM | ACHN 43.5 µM | NCI/ADR-RES 29 µM | TK-10 35.5 µM | BT-549 22.9 µM | OVCAR-8 50.1 µM | CCRF-CEM 46.8 µM | OVCAR-4 > 100 µM | T47D 29.6 µM | SNB-75 19.9 µM

Cc1[nH]c2c(C)ccc(C)c2c1CC(=O)O
inactive: COLO 205 40 µM | A549 42.3 µM | KM12 32.2 µM | NCI-H522 24.2 µM | SNB-19 92 µM | SF-295 50.1 µM | HCT-116 38.5 µM | OVCAR-3 31.3 µM | HT-29 43.3 µM | HCC 2998 29.6 µM | HOP-62 81.5 µM | ACHN 59.4 µM | NCI/ADR-RES 54.6 µM | TK-10 57 µM | BT-549 54.6 µM | OVCAR-8 32.5 µM | CCRF-CEM 20 µM | OVCAR-4 38.1 µM | T47D 41.8 µM

CCCCC(=O)Nc1ccc2cc(C(=O)OC)c(=O)[nH]c2n1
inactive: COLO 205 > 100 µM | A549 > 100 µM | KM12 > 100 µM | NCI-H522 > 100 µM | SNB-19 > 100 µM | SF-295 > 100 µM | HCT-116 > 100 µM | OVCAR-3 > 100 µM | HCC 2998 > 100 µM | HOP-62 > 100 µM | ACHN > 100 µM | NCI/ADR-RES > 100 µM | TK-10 > 100 µM | BT-549 > 100 µM | OVCAR-8 > 100 µM | CCRF-CEM 59.4 µM | OVCAR-4 > 100 µM | T47D > 100 µM | SNB-75 > 100 µM

O=C(/C=C/c1ccc(OCc2ccccc2)c(OCc2ccccc2)c1)OCc1ccccc1
inactive: COLO 205 > 100 µM | A549 > 100 µM | KM12 > 100 µM | NCI-H522 > 100 µM | SNB-19 > 100 µM | SF-295 > 100 µM | HCT-116 > 100 µM | OVCAR-3 > 100 µM | HT-29 > 100 µM | HCC 2998 > 100 µM | HOP-62 > 100 µM | ACHN > 100 µM | NCI/ADR-RES > 100 µM | TK-10 > 100 µM | BT-549 > 100 µM | OVCAR-8 > 100 µM | OVCAR-4 > 100 µM | T47D > 100 µM | SNB-75 > 100 µM

CCC(=O)NC(Nc1ccccc1F)(C(F)(F)F)C(F)(F)F
inactive: COLO 205 > 100 µM | A549 > 100 µM | KM12 > 100 µM | NCI-H522 > 100 µM | SNB-19 > 100 µM | SF-295 > 100 µM | HCT-116 > 100 µM | OVCAR-3 > 100 µM | HT-29 > 100 µM | HCC 2998 > 100 µM | ACHN > 100 µM | NCI/ADR-RES > 100 µM | TK-10 > 100 µM | BT-549 > 100 µM | OVCAR-8 > 100 µM | CCRF-CEM > 100 µM | OVCAR-4 > 100 µM | T47D 40.9 µM | SNB-75 > 100 µM

COc1ccc(-c2cc(-c3ccc(Nc4ccnc5cc(Cl)ccc45)cc3)[nH]c(=O)c2C#N)cc1
inactive: COLO 205 > 100 µM | A549 > 100 µM | KM12 2.86 µM | NCI-H522 > 100 µM | SNB-19 77.4 µM | SF-295 > 100 µM | HCT-116 > 100 µM | OVCAR-3 > 100 µM | HCC 2998 > 100 µM | HOP-62 80 µM | ACHN > 100 µM | NCI/ADR-RES > 100 µM | TK-10 72.4 µM | BT-549 > 100 µM | OVCAR-8 > 100 µM | OVCAR-4 > 100 µM | T47D > 100 µM | SNB-75 > 100 µM

N#CC(/N=N/c1ccc(Cl)cc1)c1nc2ccccc2o1 (stereo not given)
inactive: COLO 205 22.3 µM | A549 > 100 µM | KM12 89.7 µM | NCI-H522 10.6 µM | SNB-19 42.7 µM | SF-295 27.9 µM | HCT-116 56.4 µM | OVCAR-3 37.9 µM | HT-29 > 100 µM | HCC 2998 33 µM | HOP-62 38.3 µM | ACHN 32.9 µM | NCI/ADR-RES > 100 µM | TK-10 56.6 µM | BT-549 32.6 µM | OVCAR-8 88.1 µM | CCRF-CEM 21.1 µM | OVCAR-4 30.2 µM | T47D 7.71 µM

CCCCCc1c(CCCC)c(O)nc2nc(NC(=O)CCCC)ccc12
inactive: COLO 205 > 100 µM | A549 > 100 µM | KM12 > 100 µM | NCI-H522 > 100 µM | SNB-19 > 100 µM | SF-295 > 100 µM | HCT-116 > 100 µM | OVCAR-3 > 100 µM | HCC 2998 > 100 µM | HOP-62 > 100 µM | ACHN > 100 µM | NCI/ADR-RES > 100 µM | TK-10 > 100 µM | BT-549 > 100 µM | OVCAR-8 > 100 µM | CCRF-CEM > 100 µM | OVCAR-4 > 100 µM | T47D > 100 µM | SNB-75 > 100 µM

N#C/C(=C\c1ccc(F)cc1)c1nc(-c2cc3ccccc3oc2=O)cs1
inactive: COLO 205 > 100 µM | A549 55.5 µM | KM12 59 µM | NCI-H522 17.9 µM | SNB-19 11.8 µM | SF-295 14 µM | HCT-116 35.2 µM | HT-29 40.1 µM | HCC 2998 37.7 µM | HOP-62 8.28 µM | ACHN 22 µM | NCI/ADR-RES 30.9 µM | TK-10 16.4 µM | BT-549 12.3 µM | OVCAR-8 21.3 µM | CCRF-CEM > 100 µM | OVCAR-4 10.4 µM | T47D 24.2 µM | SNB-75 7.01 µM

Cc1cc(C)c2c(c1)C(=O)C1(C2)Cc2c(ccc(C)c2C)C1=O (stereo not given)
inactive: COLO 205 > 100 µM | A549 > 100 µM | KM12 > 100 µM | NCI-H522 43.8 µM | SNB-19 > 100 µM | SF-295 > 100 µM | HCT-116 > 100 µM | OVCAR-3 14.3 µM | HCC 2998 > 100 µM | ACHN > 100 µM | NCI/ADR-RES > 100 µM | TK-10 > 100 µM | BT-549 > 100 µM | OVCAR-8 > 100 µM | CCRF-CEM > 100 µM | OVCAR-4 > 100 µM | T47D > 100 µM | SNB-75 > 100 µM

CCOC(=O)C1=CNC(C(=O)OCC)C1c1cccn1-c1ccccc1 (stereo not given)
inactive: COLO 205 23.5 µM | A549 33.9 µM | KM12 30.8 µM | NCI-H522 21.3 µM | SF-295 24.5 µM | HCT-116 23.6 µM | OVCAR-3 26.1 µM | HT-29 23 µM | HCC 2998 28.7 µM | HOP-62 58.3 µM | ACHN 30.5 µM | NCI/ADR-RES 22.8 µM | TK-10 41.8 µM | BT-549 36.7 µM | OVCAR-8 28.8 µM | CCRF-CEM 29.3 µM | OVCAR-4 46.6 µM | T47D 25.8 µM | SNB-75 21.4 µM

Cc1cc(NC(=O)C(=O)Cc2cnc3ccccc3n2)c(S(=O)(=O)O)cc1Cl
inactive: COLO 205 > 100 µM | A549 > 100 µM | KM12 > 100 µM | NCI-H522 > 100 µM | SNB-19 > 100 µM | SF-295 > 100 µM | HCT-116 > 100 µM | OVCAR-3 > 100 µM | HT-29 > 100 µM | HCC 2998 > 100 µM | ACHN > 100 µM | NCI/ADR-RES > 100 µM | TK-10 > 100 µM | BT-549 > 100 µM | OVCAR-8 > 100 µM | CCRF-CEM > 100 µM | OVCAR-4 > 100 µM | T47D > 100 µM | SNB-75 > 100 µM
